From doi:10.1101/202341v1, “A cell-free synthetic biochemistry platform for raspberry ketone production” (biorxiv, 2017)

Assays:
TAL = biological target: T1, TAL (Rhodotorula glutinis, UniProt U5TV35); assay: individual enzyme activity assay; type: biochemical
T1 construct: synthetic gene codon optimised for E. coli; expressed in E. coli BL21-Gold (DE3)
T1 sequence (U5TV35 1-693): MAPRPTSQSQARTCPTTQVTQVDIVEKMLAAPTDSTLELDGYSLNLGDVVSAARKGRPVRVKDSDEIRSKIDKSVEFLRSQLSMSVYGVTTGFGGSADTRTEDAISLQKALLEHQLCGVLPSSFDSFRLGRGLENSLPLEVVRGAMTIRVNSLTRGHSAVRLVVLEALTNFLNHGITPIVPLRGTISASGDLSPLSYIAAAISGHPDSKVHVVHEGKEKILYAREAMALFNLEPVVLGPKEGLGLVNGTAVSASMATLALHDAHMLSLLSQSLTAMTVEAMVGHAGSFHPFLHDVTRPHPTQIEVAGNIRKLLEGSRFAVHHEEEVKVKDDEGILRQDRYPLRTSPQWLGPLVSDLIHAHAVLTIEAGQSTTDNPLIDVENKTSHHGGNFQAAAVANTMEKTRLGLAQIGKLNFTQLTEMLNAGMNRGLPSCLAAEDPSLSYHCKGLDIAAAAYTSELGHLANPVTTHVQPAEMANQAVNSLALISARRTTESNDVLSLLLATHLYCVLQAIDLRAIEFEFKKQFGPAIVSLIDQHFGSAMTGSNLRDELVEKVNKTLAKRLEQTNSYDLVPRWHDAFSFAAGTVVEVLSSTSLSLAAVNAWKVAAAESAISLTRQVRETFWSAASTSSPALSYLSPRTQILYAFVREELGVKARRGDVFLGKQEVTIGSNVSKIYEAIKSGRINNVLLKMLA

CurA [1] = biological target: T2, CurA (Escherichia coli, UniProt P76113); assay: ligand fluorescence (excitation […] nm, emission […] nm); type: binding; settings: apo-CurA without NADPH; titration 0-100 uM curcumin with 25 uM CurA; also reduced as substrate when NADPH is added
T2 construct: N-terminal His6-tag; expressed in E. coli BL21 Gold (DE3) pLysS; apo form
T2 sequence (P76113 1-345): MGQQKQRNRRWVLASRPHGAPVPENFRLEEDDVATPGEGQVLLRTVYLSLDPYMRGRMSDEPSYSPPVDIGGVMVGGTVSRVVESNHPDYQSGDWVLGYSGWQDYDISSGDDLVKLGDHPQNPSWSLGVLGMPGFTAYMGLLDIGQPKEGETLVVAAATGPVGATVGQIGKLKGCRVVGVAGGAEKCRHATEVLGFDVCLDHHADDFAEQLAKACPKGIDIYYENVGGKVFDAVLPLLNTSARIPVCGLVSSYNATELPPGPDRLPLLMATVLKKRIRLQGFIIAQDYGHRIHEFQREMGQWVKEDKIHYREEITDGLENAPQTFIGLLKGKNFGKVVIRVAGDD

CurA [2] = biological target: T2, CurA; assay: ligand fluorescence in one-pot enzymatic synthesis; type: binding; settings: 25 uM CurA without NADPH; BDMC formed in situ by TAL, PCL, MatB and CUS

SMILES: N[C@@H](Cc1ccc(O)cc1)C(=O)O [tyrosine]
- individual enzyme activity assay (TAL): The activity of TAL and PCL enzymes was also assayed individually

SMILES: COc1cc(/C=C/C(=O)CC(=O)/C=C/c2ccc(O)c(OC)c2)ccc1O [curcumin]
- ligand fluorescence (excitation 425 nm, emission 520 nm) (CurA [1]): CurA could bind curcumin in the absence of NADPH

SMILES: O=C(/C=C/c1ccc(O)cc1)CC(=O)/C=C/c1ccc(O)cc1 [BDMC]
- ligand fluorescence in one-pot enzymatic synthesis (CurA [2]): used in the absence of NADPH to bind to BDMC/curcumin
